Source: patent US11530244B2, “Cyclic polypeptides for PCSK9 inhibition” (priority 2018, dated 2022)
pIC50: −log10 of the molar value. Starred links: 1 amine or outer side, 2 acyl side, 3 side chain; linkers in the order of their positions; H or OH if unused. Positions of bridges follow the written chain, without caps; N, C: chain ends. Non-standard residues stand in square brackets, D forms with d. Residues, ends and D or L forms follow the SMILES beside them. Triazole bridges read from a SMILES are 1,4-linked. Nle(6-ylidene) = O=C([C@H](CCCC=[*:3])N[*:1])[*:2]; X25 = O=C([C@H](Cc1cccc(OCC=[*:3])c1)N[*:1])[*:2]; Pro(cis-4-Ph) = O=C(O)[C@@H]1C[C@H](c2ccccc2)CN1; Pyridine(2,6-diCH2) = c1cc(C[*:1])nc(C[*:2])c1; Trp(5-F) = N[C@@H](Cc1c[nH]c2ccc(F)cc12)C(=O)O; dTrp(5-F) = N[C@H](Cc1c[nH]c2ccc(F)cc12)C(=O)O; Phe(4-CH2NH2) = NCc1ccc(C[C@H](N)C(=O)O)cc1; Bip = N[C@@H](Cc1ccc(-c2ccccc2)cc1)C(=O)O; Pro(cis-4-F) = O=C(O)[C@@H]1C[C@H](F)CN1; X19 = O=C(CCCCc1ccc(CCCCN[*:1])cc1)[*:2]; Lys(N3) = [N-]=[N+]=NCCCC[C@H](N)C(=O)O; X4 = O=C(CCSCc1cccc(CSCCN[*:1])c1)[*:2]; TBMB = c1c(C[*:1])cc(C[*:3])cc1C[*:2]; mXylylene = c1cc(C[*:1])cc(C[*:2])c1; AEF = NCCOc1ccc(C[C@H](N)C(=O)O)cc1; d(αMeP) = C[C@]1(C(=O)O)CCCN1; Tle = CC(C)(C)[C@H](N)C(=O)O; αMeP = C[C@@]1(C(=O)O)CCCN1; dPra = C#CC[C@@H](N)C(=O)O; Aib = CC(C)(N)C(=O)O; Mpa = O=C(O)CCS

Tests used:
PCSK9 = PCSK9 (Homo sapiens (Human), UniProt Q8NBP7); assay: PCSK9 Alexa FRET Standard assay (displacement of AlexaFluor647 tagged cyclic peptide Reagent A); format: binding; settings: PCSK9 Alexa FRET Standard assay, 0.5 nM PCSK9, 20 nM AF cyclic peptide Reagent A; read-out: IC50
Chain of PCSK9 (Q8NBP7 153-692): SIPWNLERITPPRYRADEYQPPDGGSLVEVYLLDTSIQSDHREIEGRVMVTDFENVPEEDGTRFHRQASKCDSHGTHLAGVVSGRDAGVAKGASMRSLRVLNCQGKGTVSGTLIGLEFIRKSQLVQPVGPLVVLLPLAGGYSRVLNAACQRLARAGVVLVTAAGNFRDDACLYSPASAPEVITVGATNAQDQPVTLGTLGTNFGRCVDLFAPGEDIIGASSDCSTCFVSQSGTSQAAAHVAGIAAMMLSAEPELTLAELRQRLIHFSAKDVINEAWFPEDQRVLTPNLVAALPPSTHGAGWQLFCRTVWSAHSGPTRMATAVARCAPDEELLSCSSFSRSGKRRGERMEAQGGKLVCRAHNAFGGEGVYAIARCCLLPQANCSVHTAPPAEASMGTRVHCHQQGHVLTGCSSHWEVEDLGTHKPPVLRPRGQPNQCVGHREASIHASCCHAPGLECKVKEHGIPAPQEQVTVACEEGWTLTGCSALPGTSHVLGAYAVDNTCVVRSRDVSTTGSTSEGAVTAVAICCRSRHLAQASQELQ
Procedure, shortened: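 TR-FRET displacement: 0.5 nM biotinylated PCSK9 with 1.25 nM Strep-Eu and 20 nM AlexaFluor-tagged cyclic peptide (final) in 50 mM HEPES pH 7.4, 0.15 M NaCl, 5 mM CaCl2, 0.01% BSA, 0.01% P20, ≥2 h at room temperature. IC50 from sigmoidal fit, converted to Ki via peptide KD; falling Eu counts flagged false positives.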

[1] = target: human PCSK9 / human LDLR EGFa domain interaction (Homo sapiens (Human), UniProt Q8NBP7); assay: TR-FRET assay of inhibition of the PCSK9-LDLR protein-protein interaction; format: binding; settings: TR-FRET, 20 nM human PCSK9, 20 nM human LDLR EGFa domain, 2 hours room temperature; read-out: IC50
Chain of human PCSK9 / human LDLR EGFa domain interaction (Q8NBP7 153-692): as above
Chain of human PCSK9 / human LDLR EGFa domain interaction (Q8NBP7 31-152 partner): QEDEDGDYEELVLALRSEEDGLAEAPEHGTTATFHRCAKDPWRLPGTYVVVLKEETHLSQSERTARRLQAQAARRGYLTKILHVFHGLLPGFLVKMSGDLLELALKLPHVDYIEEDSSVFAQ
Procedure, shortened: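 Inhibition of PCSK9 binding to the LDLR EGFa domain, each protein at 20 nM, detected by TR-FRET using streptavidin and anti-His donor/acceptor labels (5 nM). Two-hour room-temperature incubation in calcium-containing HEPES buffer.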

Structure (SMILES)	pIC50 (PCSK9)	pIC50 [1]
NCCCC[C@@H]1NC(=O)CCSCc2cccc(c2)CSC[C@@H](C(N)=O)NC(=O)[C@@H]2C[C@H](c3ccccc3)CN2C(=O)[C@H](Cc2ccc(O)cc2)NC(=O)[C@H](Cc2cnc[nH]2)NC(=O)[C@H](CC(=O)O)NC(=O)[C@H](Cc2c[nH]c3ccc(F)cc23)NC(=O)[C@H](Cc2c[nH]c3ccc(F)cc23)NC(=O)CNC1=O [Compound 329] ([Mpa]KG[Trp(5-F)][Trp(5-F)]DHY[Pro(cis-4-Ph)]C-NH2; linker 1-10 via mXylylene)	6.00 to 7.00	6.00 to 7.00
C[C@@H]1NC(=O)CCCCc2ccc(cc2)CCCCNC(=O)C[C@@H](C(=O)N[C@@H](Cc2cnc[nH]2)C(=O)N[C@@H](Cc2ccc(O)cc2)C(=O)N2CCC[C@H]2C(N)=O)NC(=O)[C@H](Cc2c[nH]c3ccc(F)cc23)NC(=O)[C@H](Cc2c[nH]c3ccc(F)cc23)NC(=O)CNC1=O [Compound 330] ([X19]AG[Trp(5-F)][Trp(5-F)]DHYP-NH2; lactam N-6)	4.92 to 6.00	6.00 to 7.00
COc1ccc(C[C@@H]2NC(=O)[C@H]([C@@H](C)O)NC(=O)[C@@H]3CCC/C=C/COc4cccc(c4)C[C@H](NC(=O)[C@@H](C)NC(=O)[C@H](CCCCN)NC(=O)CCSCc4cccc(c4)CSCCNC(=O)[C@]4(C)CCCN4C2=O)C(=O)N[C@@H](Cc2c[nH]c4ccc(F)cc24)C(=O)N3)cc1 [Compound 494] (cyclo(K[dA][X25][Trp(5-F)][Nle(6-ylidene)]TY(Me)[αMeP][X4]); staple (E) 3-5)	4.92 to 6.00	4.92 to 6.00
NCCCC[C@@H]1NC(=O)CCSCc2cccc(c2)CSC[C@@H](C(N)=O)NC(=O)[C@@H]2CCCN2C(=O)[C@H](Cc2ccc(O)cc2)NC(=O)[C@H](Cc2c[nH]cn2)NC(=O)[C@H](CC(=O)O)NC(=O)[C@H](Cc2c[nH]c3ccc(F)cc23)NC(=O)[C@H](Cc2ccc(-c3ccccc3)cc2)NC(=O)CNC1=O [Compound 210] ([Mpa]KG[Bip][Trp(5-F)]DHYPC-NH2; linker 1-10 via mXylylene)	4.92 to 6.00	4.92 to 6.00
COc1ccc(C[C@H]2NC(=O)[C@@H](Cc3c[nH]cn3)NC(=O)[C@@H](CC(=O)O)NC(=O)[C@@H](Cc3c[nH]c4ccc(F)cc34)NC(=O)[C@@H](Cc3c[nH]c4ccc(F)cc34)NC(=O)[C@H](C(C)(C)C)NC(=O)[C@@H](CCCCN)NC(=O)CCSCc3cccc(c3)CSCCNC(=O)[C@@]3(C)CCCN3C2=O)cc1 [Compound 362] (cyclo([Tle][dTrp(5-F)][dTrp(5-F)][dD][dH][dY](Me)[d(αMeP)][X4][dK]))	7.00 to 9.96	7.00 to 10.00
CC(=O)N[C@@H]1Cc2cn(nn2)CCCC[C@@H](C(N)=O)NC(=O)[C@]2(C)CCCN2C(=O)[C@H](Cc2ccc(O)cc2)NC(=O)[C@H](Cc2cnc[nH]2)NC(=O)[C@H](CC(=O)O)NC(=O)[C@H](Cc2c[nH]c3ccc(F)cc23)NC(=O)[C@H](Cc2c[nH]c3ccc(F)cc23)NC(=O)CNC1=O [Compound 336] (Ac-[dPra]G[Trp(5-F)][Trp(5-F)]DHY[αMeP][Lys(N3)]-NH2; triazole 1-9)	6.00 to 7.00	7.00 to 10.00
COc1ccc(C[C@@H]2NC(=O)[C@H](Cc3cnc[nH]3)NC(=O)[C@H](CC(=O)O)NC(=O)[C@H](Cc3c[nH]c4ccc(F)cc34)NC(=O)[C@H](Cc3c[nH]c4ccc(F)cc34)NC(=O)[C@@H](C)NC(=O)[C@H](CCCCN)NC(=O)[C@@H](NC(C)=O)CCCc3cn(nn3)-c3ccc(cc3)C[C@@H](C(N)=O)NC(=O)[C@]3(C)CCCN3C2=O)cc1 [Compound 353]	4.30 to 4.68	4.30 to 4.68
CC(=O)N[C@H]1CCC(=O)NCCOc2ccc(cc2)C[C@@H](C(N)=O)NC(=O)[C@]2(C)CCCN2C(=O)[C@H](Cc2ccc(O)cc2)NC(=O)[C@H](Cc2c[nH]cn2)NC(=O)[C@H](CC(=O)O)NC(=O)[C@H](Cc2c[nH]c3ccc(F)cc23)NC(=O)[C@H](Cc2c[nH]c3ccc(F)cc23)NC(=O)CNC(=O)[C@H](C)NC1=O [Compound 311] (Ac-EAG[Trp(5-F)][Trp(5-F)]DHY[αMeP][AEF]-NH2; lactam 1-10)	4.92 to 6.00	6.00 to 7.00
CC(=O)N[C@H]1CC(=O)NCCOc2ccc(cc2)C[C@@H](C(N)=O)NC(=O)[C@]2(C)CCCN2C(=O)[C@H](Cc2ccc(O)cc2)NC(=O)[C@H](Cc2c[nH]cn2)NC(=O)[C@H](CC(=O)O)NC(=O)[C@H](Cc2c[nH]c3ccc(F)cc23)NC(=O)[C@H](Cc2c[nH]c3ccc(F)cc23)NC(=O)CNC(=O)[C@H](C)NC1=O [Compound 310] (Ac-DAG[Trp(5-F)][Trp(5-F)]DHY[αMeP][AEF]-NH2; lactam 1-10)	4.92 to 6.00	4.92 to 6.00
COc1ccc(C[C@@H]2NC(=O)[C@H]([C@@H](C)O)NC(=O)[C@@H]3C[C@H](F)CN3C(=O)[C@H](Cc3c[nH]c4ccc(F)cc34)NC(=O)[C@H](Cc3c[nH]c4ccc(F)cc34)NC(=O)[C@@H](C)NC(=O)[C@H](CCCCN)NC(=O)[C@@H](NC(C)=O)CC(=O)NCCOc3ccc(cc3)C[C@@H](C(N)=O)NC(=O)[C@]3(C)CCCN3C2=O)cc1 [Compound 067] (Ac-DK[dA][Trp(5-F)][Trp(5-F)][Pro(cis-4-F)]TY(Me)[αMeP][AEF]-NH2; lactam 1-10)	6.00 to 7.00	7.00 to 10.00
COc1ccc(C[C@@H]2NC(=O)[C@H]([C@@H](C)O)NC(=O)[C@@H]3CCCN3C(=O)[C@H](Cc3c[nH]c4ccc(F)cc34)NC(=O)[C@H](Cc3c[nH]c4ccc(F)cc34)NC(=O)[C@@H](C)NC(=O)[C@H](CCCCN)NC(=O)CCSCc3cc(C)cc(c3)CSC[C@@H](C(N)=O)NC(=O)[C@]3(C)CCCN3C2=O)cc1 [Compound 062] ([Mpa]K[dA][Trp(5-F)][Trp(5-F)]PTY(Me)[αMeP]C-NH2; linker 1-10 via TBMB)	4.92 to 6.00	4.92 to 6.00
CC(=O)N[C@H]1CCCc2cn(nn2)CCC[C@@H](C(N)=O)NC(=O)[C@]2(C)CCCN2C(=O)[C@H](Cc2ccc(O)cc2)NC(=O)[C@H](Cc2cnc[nH]2)NC(=O)[C@H](CC(=O)O)NC(=O)[C@H](Cc2c[nH]c3ccc(F)cc23)NC(=O)[C@H](Cc2c[nH]c3ccc(F)cc23)NC(=O)CNC(=O)[C@H](C)NC1=O [Compound 342]	4.92 to 6.00	4.92 to 6.00
COc1ccc(C[C@@H]2NC(=O)[C@H]([C@@H](C)O)NC(=O)[C@@H]3CCCN3C(=O)[C@H](Cc3c[nH]c4ccc(F)cc34)NC(=O)[C@H](Cc3c[nH]c4ccc(F)cc34)NC(=O)[C@@H](C)NC(=O)[C@H](CCCCN)NC(=O)CCSCc3cccc(n3)CSC[C@@H](C(N)=O)NC(=O)[C@]3(C)CCCN3C2=O)cc1 [Compound 065] ([Mpa]K[dA][Trp(5-F)][Trp(5-F)]PTY(Me)[αMeP]C-NH2; linker 1-10 via Pyridine(2,6-diCH2))	6.00 to 7.00	7.00 to 10.00
C[C@H]1NC(=O)[C@H](CCCCN)NC(=O)CCSCc2cccc(c2)CSC[C@@H](C(N)=O)NC(=O)[C@]2(C)CCCN2C(=O)[C@H](Cc2ccc(O)cc2)NC(=O)C(C)(C)NC(=O)[C@@H]2CCCN2C(=O)[C@H](Cc2c[nH]c3ccc(F)cc23)NC(=O)[C@H](Cc2c[nH]c3ccc(F)cc23)NC1=O [Compound 005] ([Mpa]K[dA][Trp(5-F)][Trp(5-F)]P[Aib]Y[αMeP]C-NH2; linker 1-10 via mXylylene)	6.00 to 7.00	7.00 to 10.00
CC(C)[C@H]1NC(=O)[C@H](CCCCN)NC(=O)CCSCc2cccc(c2)CSC[C@@H](C(N)=O)NC(=O)[C@]2(C)CCCN2C(=O)[C@H](Cc2ccc(O)cc2)NC(=O)[C@H]([C@@H](C)O)NC(=O)[C@@H]2CCCN2C(=O)[C@H](Cc2c[nH]c3ccc(F)cc23)NC(=O)[C@H](Cc2c[nH]c3ccc(F)cc23)NC1=O [Compound 052] ([Mpa]K[dV][Trp(5-F)][Trp(5-F)]PTY[αMeP]C-NH2; linker 1-10 via mXylylene)	4.92 to 6.00	4.92 to 6.00
COc1ccc(C[C@@H]2NC(=O)[C@@H]3CCCC(=O)N[C@H]4C[C@@H](C(=O)N3)N(C4)C(=O)[C@H](Cc3c[nH]c4ccc(F)cc34)NC(=O)[C@H](Cc3c[nH]c4ccc(F)cc34)NC(=O)[C@@H](C)NC(=O)[C@H](C)NCCSCc3ccc(cc3)CSCCNC(=O)[C@]3(C)CCCN3C2=O)cc1 [Compound 519]	4.92 to 6.00	4.92 to 6.00
COc1ccc(C[C@@H]2NC(=O)[C@H]([C@@H](C)O)NC(=O)[C@@H]3C[C@H](F)CN3C(=O)[C@H](Cc3c[nH]c4ccc(F)cc34)NC(=O)[C@H](Cc3c[nH]c4ccc(F)cc34)NC(=O)[C@@H](C)NC(=O)[C@H](CCCCN)NC(=O)[C@@H](NC(C)=O)CC(=O)NCc3ccc(cc3)C[C@@H](C(N)=O)NC(=O)[C@]3(C)CCCN3C2=O)cc1 [Compound 066] (Ac-DK[dA][Trp(5-F)][Trp(5-F)][Pro(cis-4-F)]TY(Me)[αMeP][Phe(4-CH2NH2)]-NH2; lactam 1-10)	7.00 to 9.96	7.00 to 10.00
CC(C)C[C@H]1NC(=O)[C@H](CCCCN)NC(=O)CCSCc2cccc(c2)CSC[C@@H](C(N)=O)NC(=O)[C@]2(C)CCCN2C(=O)[C@H](Cc2ccc(O)cc2)NC(=O)[C@H](Cc2cnc[nH]2)NC(=O)[C@H](CC(=O)O)NC(=O)[C@H](Cc2c[nH]c3ccc(F)cc23)NC(=O)[C@H](Cc2c[nH]c3ccc(F)cc23)NC1=O [Compound 373] ([Mpa]K[dL][Trp(5-F)][Trp(5-F)]DHY[αMeP]C-NH2; linker 1-10 via mXylylene)	6.00 to 7.00	7.00 to 10.00
C[C@H]1NC(=O)[C@H](CCCCN)NC(=O)CCSCc2cccc(c2)CSC[C@@H](C(N)=O)NC(=O)[C@]2(C)CCCN2C(=O)[C@H](Cc2ccc(O)cc2)NC(=O)[C@H]([C@@H](C)O)NC(=O)[C@@H]2CCCN2C(=O)[C@H](Cc2c[nH]c3ccc(F)cc23)NC(=O)[C@H](Cc2c[nH]c3ccc(F)cc23)NC1=O [Compound 044] ([Mpa]K[dA][Trp(5-F)][Trp(5-F)]PTY[αMeP]C-NH2; linker 1-10 via mXylylene)	6.00 to 7.00	6.00 to 7.00
